Eleven molecules from ChEMBL document CHEMBL1201862, “PubChem BioAssay data set” (2004) can be followed below.

The structures appear in SMILES notation.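 Results reflect a 48-hour exposure of cells in 96-well plates to compound at five concentrations. GI50 is the concentration that inhibits growth by half.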 Calls of active or inactive are those of the source. Rule as the data show it: active = GI50 up to about 1.1 µM and inactive = higher. A value given as a limit tells only on which side of the number the result lay.

Assay in all cases: NCI-60 cell line screen, 48 h
For assay [1], the system named is UACC-257.
Assay [2] relates to HL-60.
In assay [3] the test system is HCT-15.
The subject of assay [4] is SK-MEL-5.
Assay [5] relates to SNB-75.
Assay [6] relates to SK-MEL-28.
Assay [7] relates to HOP-92.
Assay [8] relates to HT-29.
The test system of assay [9] is OVCAR-4.
Assay [10] has as its system SF-295.
Assay [11] has as its system Malme-3M.
Assay [12] concerns K562.
Assay [13] relates to 786-0.
The subject of assay [14] is ACHN.
Assay [15] has as its system SF-539.
Assay [16] concerns M14.
Assay [17] concerns NCI/ADR-RES.
The test system of assay [18] is HOP-62.
Assay [19] relates to OVCAR-3.
Assay [20] concerns SK-MEL-2.

Take `Fc1ccc2c3c([nH]c2c1)CCNC3`: the GI50 was > 100 µM (inactive) in assay [1]; > 100 µM (inactive) in assay [2]; above 100 µM in assay [3]; > 100 µM (inactive) in [4]; > 100 µM (inactive) in assay [5]; > 100 µM (inactive) in assay [6]. The GI50 in assay [7] is 29.5 µM (inactive); in assay [8] it was > 100 µM (inactive); in [9], > 100 µM (inactive); in [10], 67.8 µM (inactive); in [11], > 100 µM (inactive); in assay [12] it was > 100 µM (inactive). In addition, the GI50 in assay [13] is > 100 µM (inactive); in assay [14], 65.3 µM (inactive); in assay [15], > 100 µM (inactive); in assay [16] it was > 100 µM (inactive); in [17], > 100 µM (inactive); in assay [18] it was > 100 µM (inactive).

As to `Oc1ccc(/N=N/c2ccc(Cl)cc2)cc1`, the GI50 in assay [1] is 15.8 µM (inactive); in assay [2] it was 4.38 µM (inactive); in assay [3] it was 14.7 µM; in assay [4] it was 11.7 µM (inactive); in [5], 18.9 µM (inactive); in [6] it was 23 µM (inactive). Moreover, the GI50 in assay [7] is 12.7 µM (inactive); in assay [8], 18.3 µM (inactive); in assay [9], 14.9 µM (inactive); in assay [10], 16.4 µM (inactive); in assay [12], 19.6 µM (inactive); in [13], 17.3 µM (inactive). The GI50 in [19] was 21.7 µM (inactive); in assay [20], 14.2 µM (inactive); in [14] it was 12.9 µM (inactive); in assay [15], 18.4 µM (inactive); in [16], 10.7 µM (inactive); in [17], 18.1 µM (inactive). The GI50 in assay [18] was 18.4 µM (inactive).

Regarding `O=C(N/N=C\c1ccc(Cl)cc1)Nc1ccc2ccccc2c1`, the GI50 in assay [1] is 95.5 µM (inactive); in assay [3] it was above 100 µM; in assay [4] it was > 100 µM (inactive); in assay [5] it was 30.5 µM (inactive); in assay [6], 54.7 µM (inactive); in assay [7], 29.6 µM (inactive). The GI50 is 46.2 µM (inactive) in assay [8]; 19.8 µM (inactive) in assay [9]; > 10 µM (inactive) in assay [10]; 32.8 µM (inactive) in assay [11]; > 100 µM (inactive) in assay [12]; 19.3 µM (inactive) in assay [13]. Moreover, the GI50 in assay [19] is > 100 µM (inactive); in assay [20] it was 80.4 µM (inactive); in assay [14], 43.6 µM (inactive); in [15] it was 27.8 µM (inactive); in assay [16], 59.2 µM (inactive); in assay [17] it was 49.3 µM (inactive). The GI50 in [18] was 21.9 µM (inactive).

Regarding `CC(=O)O[C@H]1[C@@H](OC2CCCC2(c2ccccc2)c2ccccc2)O[N+]([O-])=C[C@@]12COCc1cc3c(cc12)OCO3` (stereo partly drawn), the GI50 in assay [1] is 18.2 µM (inactive); in [2], 3.24 µM (inactive); in assay [3], 6.37 µM; in [4] it was 4.6 µM (inactive); in assay [5], 4.11 µM (inactive); in [6], 6.78 µM (inactive). Moreover, the GI50 in assay [7] is 5.13 µM (inactive); in assay [8], 2.77 µM (inactive); in assay [9], 1.49 µM (inactive); in [10], 5.25 µM (inactive); in assay [12], 2.92 µM (inactive); in assay [13] it was 6.58 µM (inactive). The GI50 in [19] is 1.89 µM (inactive); in assay [20], 4.17 µM (inactive); in assay [14], 7.85 µM (inactive); in assay [15], 93.3 µM (inactive); in assay [16], 11.2 µM (inactive); in assay [17] it was 3.52 µM (inactive). Also, the GI50 in [18] was 2.99 µM (inactive).

Turning to `Cc1ccc(O)c(C(c2cc(C)ccc2O)c2cc([N+](=O)[O-])ccc2O)c1`, the GI50 in assay [1] is 16.6 µM (inactive); in [2] it was 3.42 µM (inactive); in assay [3] it was 16.3 µM; in [4] it was 38.6 µM (inactive); in assay [5], 5.46 µM (inactive); in [6] it was 5.73 µM (inactive). Besides, the GI50 in [7] was 14.8 µM (inactive); in assay [8], 15 µM (inactive); in assay [9], 11.8 µM (inactive); in assay [10], 16.7 µM (inactive); in assay [12], 23.1 µM (inactive); in assay [13], 16.1 µM (inactive). Moreover, the GI50 in assay [19] was 12.4 µM (inactive); in assay [20], 13.7 µM (inactive); in [14] it was 13.2 µM (inactive); in assay [15], 15.7 µM (inactive); in assay [16], 11 µM (inactive); in assay [17], 21.1 µM (inactive). For the same molecule, in assay [18], the GI50 is 13.4 µM (inactive).

As to `O=C1CNC(=O)/C(=C/c2c[nH]c3ccccc23)N1`, the GI50 is > 100 µM (inactive) in assay [1]; 36.3 µM (inactive) in [2]; above 100 µM in assay [3]; > 100 µM (inactive) in assay [4]; > 100 µM (inactive) in assay [6]; > 100 µM (inactive) in assay [7]. Also, the GI50 in assay [8], in [9], in assay [10], in [11], in [12] and in assay [13] was > 100 µM (inactive) throughout. The GI50 in assay [19], in assay [20], in assay [14], in assay [16], in assay [17] and in [18] was > 100 µM (inactive) in each case.

On to `N=C(N)NCCCC(NC(=O)OCCCCn1ccc(N)nc1=O)C(=O)O` (stereo not drawn), for which the GI50 in assay [1] was > 100 µM (inactive); in [2], > 100 µM (inactive); in [3], above 100 µM; in assay [5] it was > 100 µM (inactive); in assay [6] it was > 100 µM (inactive); in assay [7] it was > 100 µM (inactive). The GI50 in [8], in assay [9], in [10], in assay [12], in assay [13] and in [19] was > 100 µM (inactive) each time. For the same molecule, the GI50 in [20], in assay [14], in [15], in [16], in assay [17] and in assay [18] was > 100 µM (inactive) throughout.

Turning to `CC1=NN(c2nc(N)nc(CSc3nc4n(c(=S)n3)CCN4)n2)C(C)(C)C1`, the GI50 is > 100 µM (inactive) in assay [1]; > 100 µM (inactive) in assay [2]; 32 µM in assay [3]; > 100 µM (inactive) in assay [4]; 15.3 µM (inactive) in assay [5]; > 100 µM (inactive) in [6]. Also, the GI50 in assay [7] is 18.6 µM (inactive); in [8] it was > 100 µM (inactive); in assay [9] it was > 100 µM (inactive); in [10], 22.9 µM (inactive); in [12], > 100 µM (inactive); in [13] it was 93.5 µM (inactive). In addition, the GI50 was 16.8 µM (inactive) in assay [20]; 44.9 µM (inactive) in [14]; 44.8 µM (inactive) in [15]; 67.9 µM (inactive) in assay [16]; 30.1 µM (inactive) in assay [17]; 14 µM (inactive) in assay [18].

As for `CC(=O)/C(C)=N/NC(=O)c1ccccc1O`, the GI50 in assay [1] was > 10 µM (inactive); in assay [3], 97.5 µM; in assay [4], 95.1 µM (inactive); in [5], > 10 µM (inactive); in assay [6] it was > 10 µM (inactive); in assay [7], > 10 µM (inactive). For the same molecule, the GI50 in assay [8] was > 10 µM (inactive); in [9], > 10 µM (inactive); in assay [10], > 10 µM (inactive); in assay [11], > 10 µM (inactive); in assay [12], 37 µM (inactive); in assay [13], > 10 µM (inactive). For the same molecule, the GI50 in [19] is 69.5 µM (inactive); in assay [20], > 10 µM (inactive); in assay [14], > 10 µM (inactive); in assay [15], > 10 µM (inactive); in [16], > 10 µM (inactive); in [17], > 100 µM (inactive). Moreover, in [18], the GI50 was > 10 µM (inactive).

As for `CCOC(=O)/C(=C\NC(C)(C)C)c1nc2ccccc2[nH]1`, the GI50 in [1] was 18.5 µM (inactive); in [2], 13.2 µM (inactive); in assay [3] it was 34.2 µM; in assay [4], 12.9 µM (inactive); in [5], 23.7 µM (inactive); in assay [6], 16.4 µM (inactive). In addition, the GI50 in assay [7] was 25.2 µM (inactive); in [8], 17.9 µM (inactive); in assay [9] it was 24.5 µM (inactive); in assay [10], 20.2 µM (inactive); in [11], 20.6 µM (inactive); in assay [13], 27.1 µM (inactive). The GI50 in assay [19] is 17.5 µM (inactive); in assay [14], 20.4 µM (inactive); in [15], 16.8 µM (inactive); in assay [16] it was 20.1 µM (inactive); in assay [17], 32 µM (inactive); in assay [18], 22.4 µM (inactive).

Take `O=C1c2ccc3c4ccc5c6c(ccc(c7ccc(c2c37)C(=O)N1CCN1CCCCC1)c64)C(=O)N(CCN1CCCCC1)C5=O`: the GI50 was > 100 µM (inactive) in assay [1]; > 100 µM (inactive) in [2]; above 100 µM in assay [3]; > 100 µM (inactive) in [4]; > 100 µM (inactive) in assay [6]; > 100 µM (inactive) in assay [7]. For the same molecule, the GI50 in [8], in assay [9], in assay [10], in assay [12], in assay [13] and in [19] was > 100 µM (inactive) each time. The GI50 in assay [20], in assay [14], in assay [15], in assay [16], in assay [17] and in [18] was > 100 µM (inactive) each time.
